Reference: publication PMC4749844, “Investigation of Calcium Channel Blockers as Antiprotozoal Agents and Their Interference in the Metabolism of Leishmania (L.) infantum” (Evidence-based Complementary and Alternative Medicine : eCAM, 2016)
Read-outs that look alike come from different tables or passages of the source. Blank lines part the entries; values can stand above or below the molecule they belong to.

Legend:
L. (L.) amazonensis = system: L. (L.) amazonensis; set-up: method as in PMID 9501844; details: read-out: IC50 against L. (L.) amazonensis; cited from earlier work
L. (L.) major = system: L. (L.) major; set-up: method as in PMID 9501844; details: read-out: IC50 against L. (L.) major; cited from earlier work
[1] = system: L. (L.) infantum promastigotes; experiment: Mitochondrial membrane potential, MitoTracker Red; format: cell-based, Leishmania (L.) infantum; details: for reduction of MitoTracker Red fluorescence levels relative to untreated parasites: 20 μM, 60 minutes, p < 0.05
Method: L. […] Then MitoTracker® Red CM-H2XROS (500 nM) was added and the incubation was continued for 40 minutes in the dark. […] Nitazoxanide (60 μg/mL) was used as a positive control and untreated promastigotes were used as negative control.

[2] = system: L. (L.) infantum promastigotes; experiment: Reactive oxygen species (ROS), H2DCF-DA; format: cell-based, Leishmania (L.) infantum; details: for regulation of ROS content compared to untreated parasites: amlodipine, fendiline 20 μM, 60 minutes
Method: L. (L.) infantum promastigotes (2 × 10^6 cells/well) were washed in HBSS medium and incubated with amlodipine or fendiline (20 μM) for 60 minutes at 24°C. To these cells 2′,7′-dichlorodihydrofluorescein diacetate (H2DCf-DA) was added (5 μM) and incubation was prolonged for 15 minutes. […] Nitazoxanide (60 μg/mL) was used as positive control and untreated promastigotes were used as negative control.

[3] = system: L. (L.) infantum promastigotes; details: not told
Method: L. (L.) infantum promastigotes were washed with PBS, deposited on a 96-well microplate (2 × 10^6 parasites/well) and incubated with SYTOX® Green (1 μM) for 15 minutes at 24°C [10]. Amlodipine and fendiline were added at 20 μM and the fluorescence was measured up to 60 minutes. The fluorescence intensity was determined using a fluorimetric microplate reader (FilterMax F5 Multi-Mode Microplate Reader-Molecular Devices) with excitation and emission wavelengths of 485 and 520 nm, respectively. Triton X-100 (0.1%) was used as positive control and untreated promastigotes were used as negative control.

[4] = system: L. (L.) infantum promastigotes; experiment: Antileishmanial activity against promastigotes, MTT assay; format: cell-based, Leishmania (L.) infantum; details: 24 hours at 24°C, highest concentration 100 μM; for IC50: Leishmania infantum, read-out: IC50 ± SD, L. (L.) infantum promastigotes
Method: (§1) Promastigotes of L. (L.) amazonensis (WHO/BR/00/LT0016), L. (V.) braziliensis (MHO/BR/75/M2903), and L. (L.) infantum (MHOM/BR/1972/LD) [synonymous with L. (L.) chagasi] were maintained in M199 medium supplemented with 10% calf serum and 0.25% hemin at 24°C. L. (L.) infantum amastigotes were obtained from the spleen of infected hamster by differential centrifugation at the 60–70th days after infection. Macrophages were collected from the peritoneal cavity of BALB/c mice by washing with RPMI-1640 medium supplemented with 10% fetal calf serum and were maintained at 37°C in a 5% CO2 humidified incubator. Trypanosoma cruzi trypomastigotes (Y strain) were maintained in LLC-MK2 (ATCC CCL 7) cells using RPMI-1640 medium supplemented with 2% calf serum at 37°C in a 5% CO2 humidified incubator.
(§2) To determine the 50% inhibitory concentration (IC50) against Leishmania promastigotes, the drugs were dissolved in DMSO and diluted with M199 medium in 96-well microplates, with 100 μM as the highest concentration. Each drug was tested twice at eight concentrations prepared in twofold dilutions. Promastigotes were counted in a Neubauer hemocytometer and seeded at 1 × 10^6 parasites/well with a final volume of 150 μL. Controls with DMSO and without drugs were performed. Pentamidine was used as a standard drug. The plate was incubated for 24 hours at 24°C and the viability of promastigotes was verified by the MTT assay. Briefly, MTT (5 mg/mL) was dissolved in PBS, sterilized through 0.22 μm membrane and 20 μL/well was added, for 4 hours at 24°C. Promastigotes were incubated without compounds and used as a viability control. Formazan extraction was performed using 10% SDS for 18 hours (80 μL/well) at 24°C, and the optical density was determined in a Multiskan MS (UNISCIENCE) plate reader at 550 nm. The 100% viability was expressed based on the optical density of control promastigotes, after normalization. […] Plates were incubated at 37°C in a 5% CO2 humidified incubator for 24 hours. L. (L.) infantum amastigotes extracted from spleens and separated by differential centrifugation were added to macrophages at a ratio of 10 : 1 (amastigotes : macrophage). After 24 hours, extracellular parasites were removed by washing, fresh medium containing the drugs and controls was added, and the cells were incubated at 37°C for a period of 120 hours. Further medium changes with fresh drugs were carried out after 72 hours. At the end of the assay, the slides were stained with Giemsa and observed using light microscopy. Glucantime was used as a standard drug. The IC50 was determined by the number of infected macrophages in 400 cells.

[5] = system: L. (L.) infantum intracellular amastigotes; experiment: Activity against intracellular amastigotes in peritoneal macrophages, Giemsa staining and light microscopy; format: cell-based, Leishmania (L.) infantum; details: for IC50 ± SD, L. (L.) infantum amastigotes / IC50: intracellular amastigotes in BALB/c peritoneal macrophages, 120 hours; for IC50: read-out: IC50 ± SD, L. (L.) infantum amastigotes; for Selectivity Index (SI), L. (L.) infantum amastigotes: ratio between cytotoxicity to LLC-MK2 cells and antiparasitic activity
Method: as §1, §2

[6] = system: L. (L.) amazonensis promastigotes; experiment: Antileishmanial activity against promastigotes, MTT assay; format: cell-based, Leishmania (L.) amazonensis; details: 24 hours at 24°C, highest concentration 100 μM; for IC50: Leishmania amazonensis, read-out: IC50 ± SD, L. (L.) amazonensis promastigotes
Method: as §1, §2

[7] = system: L. (V.) braziliensis promastigotes; experiment: as above; format: cell-based, Leishmania (V.) braziliensis; details: 24 hours at 24°C, highest concentration 100 μM; for IC50: Leishmania, read-out: IC50 ± SD, L. (V.) braziliensis promastigotes
Method: as §1, §2

T. cruzi trypomastigotes = experiment: Antitrypanosomal activity, MTT assay; format: cell-based, Trypanosoma cruzi; details: for IC50 ± SD, T. cruzi trypomastigotes / IC50: 24 hours at 37°C, highest concentration 100 μM; for IC50: read-out: IC50 ± SD, T. cruzi trypomastigotes; for Selectivity Index (SI), T. cruzi trypomastigotes: ratio between cytotoxicity to LLC-MK2 cells and antiparasitic activity
Method: as §1
To determine the IC50 against T. cruzi trypomastigotes, drugs were dissolved in DMSO and diluted with RPMI-1460 medium in 96-well microplates, with the highest concentration at 100 μM. Trypomastigotes obtained from LLC-MK2 cultures were counted in a Neubauer hemocytometer and seeded at 1 × 10^6 parasites/well in 96-well microplates. Test drugs were incubated for 24 hours at 37°C in a 5% CO2 humidified incubator and the viability of trypomastigotes was verified by the MTT assay as described above. Benznidazole was used as a standard drug.

[8] = Cytotoxicity in mammalian cells, MTT assay; format: cell-based; details: rhesus monkey, LLC-MK2 cells; 48 hours at 37°C; read-out: IC50 ± SD, LLC-MK2 cytotoxicity
Method: LLC-MK2 were seeded at 5 × 10^4 cells/well in 96-well microplates and incubated with drugs with 200 μM as the highest concentration, for 48 hours at 37°C in a 5% CO2 humidified incubator. The viability of the cells was determined by the MTT assay as described above. Control cells were incubated in the presence of DMSO and without drugs. Viability of 100% was expressed based on the optical density of control LLC-MK2 cells, after normalization. The Selectivity Index (SI) was given by the ratio between the cytotoxicity in LLC-MK2 cells and the antiparasitic activity.

[9] = system: Leishmania spp. promastigotes; experiment: Antileishmanial activity against promastigotes of all species tested, MTT assay; format: cell-based; details: range over the Leishmania species tested
Method: as §1
To determine the 50% inhibitory concentration (IC50) against Leishmania promastigotes, the drugs were dissolved in DMSO and diluted with M199 medium in 96-well microplates, with 100 μM as the highest concentration. Each drug was tested twice at eight concentrations prepared in twofold dilutions. Promastigotes were counted in a Neubauer hemocytometer and seeded at 1 × 10^6 parasites/well with a final volume of 150 μL. Controls with DMSO and without drugs were performed. Pentamidine was used as a standard drug. […]

T. cruzi epimastigotes = system: T. cruzi epimastigotes; set-up: method as in PMID 9457486; details: in vitro; read-out: IC50 against T. cruzi epimastigotes; cited from earlier work
[10] = Leishmania infantum, Peritoneal macrophage, in Mus musculus, 120 h

Molecule: Nc1ccncc1 [4-aminopyridine]
IC50 (L. (L.) amazonensis): 46 µM
IC50 (L. (L.) major): > 400 µM

Molecule: CCOC(=O)C1=C(COCCN)NC(C)=C(C(=O)OC)C1c1ccccc1Cl (stereo not drawn) [Amlodipine, amlodipine]
reduction of MitoTracker Red fluorescence levels relative to untreated parasites [1]: 7%
ROS levels, fold higher compared to fendiline ([2]; 20 μM): ~3 fold
upregulation of ROS, fold higher than nitazoxanide ([2]; amlodipine 20 μM, nitazoxanide 60 μg/mL): 1.99 fold
regulation of ROS content compared to untreated parasites ([2]; nitazoxanide 60 μg/mL): intense and significant (p < 0.05) upregulation of ROS content
plasma membrane permeability (SYTOX Green fluorescence) [3]: no interference on the plasma membrane permeability

IC50 ± SD, L. (L.) infantum amastigotes [5]: ne^b
IC50 ± SD, T. cruzi trypomastigotes (T. cruzi trypomastigotes): ne^b
IC50 ± SD, T. cruzi trypomastigotes (T. cruzi trypomastigotes; listed as amrinone): inactive
Molecule: Nc1cc(-c2ccncc2)c[nH]c1=O [Amrinone]
IC50 ± SD, L. (L.) infantum promastigotes [4]: ne^b
IC50 ± SD, L. (L.) amazonensis promastigotes [6]: ne^b
IC50 ± SD, L. (V.) braziliensis promastigotes [7]: ne^b
IC50 at 48 h [8]: > 500 µM
IC50 [9]: > 100000 nM

IC50 (T. cruzi trypomastigotes): 440 ± 39.1 µM
IC50 (T. cruzi trypomastigotes; Trypanosoma cruzi, 24 h): 440 µM
Molecule: O=C(Cn1ccnc1[N+](=O)[O-])NCc1ccccc1 [Benznidazole]
IC50 at 48 h [8]: > 500 µM

IC50 [5, 10]: 12 to 16 µM
IC50 [5]: 12.2 ± 1.74 µM
IC50 (T. cruzi trypomastigotes; Trypanosoma cruzi, 24 h): 12.1 ± 2.97 µM
Molecule: CC(NCCC(c1ccccc1)c1ccccc1)c1ccccc1 (stereo not drawn) [Fendiline, fendiline]
IC50 [4]: 16.1 ± 4.2 µM
Selectivity Index (SI), L. (L.) infantum amastigotes [5]: 4.09
IC50 [6]: 8.66 ± 1.27 µM
IC50 [7]: 9.15 ± 0.78 µM
Selectivity Index (SI), T. cruzi trypomastigotes (T. cruzi trypomastigotes): 4.11
IC50 at 48 h [8]: 49.9 ± 8.16 µM
reduction of MitoTracker Red fluorescence levels relative to untreated parasites [1]: 18%
regulation of ROS content compared to untreated parasites ([2]; nitazoxanide 60 μg/mL): intense and significant (p < 0.05) upregulation of ROS content
plasma membrane permeability (SYTOX Green fluorescence) [3]: no interference on the plasma membrane permeability

IC50 [5, 10]: 12 to 16 µM
IC50 [5]: 16.3 ± 4.45 µM
IC50 (T. cruzi trypomastigotes; Trypanosoma cruzi, 24 h): 10.4 ± 1.87 µM
Molecule: Cc1cccc(C)c1NC(=O)CN1CCN(CCCC(c2ccc(F)cc2)c2ccc(F)cc2)CC1 [Lidoflazine, lidoflazine]
IC50 [4]: 17.7 ± 0.93 µM
Selectivity Index (SI), L. (L.) infantum amastigotes [5]: 6.54
IC50 [6]: 11.5 ± 1.49 µM
IC50 [7]: 14.5 ± 1.08 µM
Selectivity Index (SI), T. cruzi trypomastigotes (T. cruzi trypomastigotes): 10.25
IC50 at 48 h [8]: 107 ± 58 µM

IC50 ± SD, L. (L.) infantum amastigotes [5]: ne^b
IC50 ± SD, L. (L.) infantum amastigotes ([5]; listed as mibefradil): lack of activity
IC50 (T. cruzi trypomastigotes; Trypanosoma cruzi, 24 h): 2.99 ± 0.43 µM
Molecule: COCC(=O)O[C@]1(CCN(C)CCCc2nc3ccccc3[nH]2)CCc2cc(F)ccc2[C@@H]1C(C)C [Mibefradil, mibefradil]
IC50 [4]: 3.6 ± 0.11 µM
IC50 [6]: 2.23 ± 0.42 µM
IC50 [7]: 2.75 ± 0.39 µM
Selectivity Index (SI), T. cruzi trypomastigotes (T. cruzi trypomastigotes): 4.01
IC50 at 48 h [8]: 12 ± 1.03 µM

Molecule: CC(=O)Oc1ccccc1C(=O)Nc1ncc([N+](=O)[O-])s1 [Nitazoxanide]
effect on mitochondrial membrane potential (fluorescence intensity) ([1]; nitazoxanide 60 μg/mL, positive control): strong reduction of fluorescence intensity
regulation of ROS content compared to untreated parasites ([2]; nitazoxanide 60 μg/mL): significant upregulation of ROS

Molecule: N=C(N)c1ccc(OCCCCCOc2ccc(C(=N)N)cc2)cc1 [Pentamidine]
IC50 [4]: 1.06 ± 0.12 µM
IC50 [6]: 1.14 ± 0.15 µM
IC50 [7]: 0.69 ± 0.04 µM
IC50 at 48 h [8]: 23.5 ± 3.53 µM
IC50 [9]: 690 to 1140 nM

Molecule: COC(=O)C1=C(C)NC(C)=C(C(=O)OC(C)C)C1c1cccc2nonc12 (stereo not drawn) [isradipine]
IC50 (T. cruzi epimastigotes): 20 µM

Molecule: CCOC(=O)C1=C(C)NC(C)=C(C(=O)OCC)C1c1ccccc1/C=C/C(=O)OC(C)(C)C [lacidipine]
IC50 (T. cruzi epimastigotes): 33 µM

Molecule: Triton X-100
plasma membrane permeability (SYTOX Green fluorescence) [3]: fully permeabilized parasites
